The test system of one data set is ERK1/2. The data set is described as follows: ERK1/2 phosphorylation assay, AlphaLISA SureFire Ultra (non-genomic activity). In kind it is cell-based. Also on record: Non-genomic activity (ERK½ Phosphorylation Assay) Efficacy (Emax): unit not given here. The settings on record: SH-SY5Y cells; for pEC50: Homo sapiens, 0.5 h, read-out: Non-genomic activity (ERK½ Phosphorylation Assay) Potency (EC50); for pEC50 / Non-genomic activity (ERK½ Phosphorylation Assay) Efficacy (Emax): serum-free, 30 minutes stimulation; for Erk 1/2 phosphorylation potency/efficacy compared to retinoic acid: versus retinoic acid. The procedure:
The non-genomic activity of synthetic retinoids was evaluated by measuring their ability to induce phosphorylation of ERK1/2 using the AlphaLISA® SureFire® Ultra ERK1/2 kit.
In this assay, SH-SY5Y cells (100,000 cells/well) were plated in 96-well plates and serum-starved in DMEM for 24 hours. Retinoids were tested at concentrations from 10−5 M to 10−11 M and at a final concentration of 0.1% DMSO in the medium. The assay was carried out on the SH-SY5Y cells in serum-free DMEM, cells were stimulated by retinoid for 30 minutes at 37° C.
At the end of the assay, the medium was removed, and cells were lysed in 50 μl of freshly prepared 1× lysis buffer (supplied in the kit). The 96-well plate was agitated on an orbital shaker (SO1, Stuart Scientific) at approximately 350 rpm for 10 minutes at room temperature.
In the meantime, the activation buffer was diluted 25-fold in the reaction buffers. Under green light in a dark room, the acceptor beads were diluted 50-fold in the freshly prepared reaction mix while the donor beads were diluted 50-fold in dilution buffer to obtain two final reaction mixtures.
10 μl of cell lysate was then transferred per well into 384-well white Proxiplates plates (PerkinElmer) and 5 μl of each prepared acceptor and donor reaction mixture was added under green light in a dark room. Plates were wrapped with aluminium foil and incubated at room temperature for at least 3 hours. Readings were taken using an Envision system (PerkinElmer Life Sciences) using the AlphaScreen® settings.

The next data set deals with SH-SY5Y cells. The data set is described as follows: Induction of neurite outgrowth. It is filed as cell-based. The note with it: 10 nM, 5 days; for fold induction at 0.01 µM: Homo sapiens, 120 h, read-out: Neurite Outgrowth Fold increase. Here is the method: SY—SY5Y cells were plated at 10,000 cells/well in 12-well plates containing acid-treated/poly-L-lysine-coated coverslips. After 24 hours, each retinoid was added to the medium at a concentration of 10 nM and the plates were incubated for 5 days. After retinoid treatment, SH-SY5Y cells on coverslips were washed twice in PBS, fixed in 4% paraformaldehyde (PFA) for 20 minutes at room temperature, and washed twice with PBS.
For immunocytochemical staining of neurites, cells on coverslips were washed three times in PBS, and incubated in blocking solution (10% donkey serum and 0.1% triton X-100 in PBS) for 1 hour at room temperature. Cells were then labelled by incubation overnight at 4° C. with β-III tubulin primary antibody (Sigma-Aldrich) diluted 1:1000 in blocking buffer. Following incubation overnight, cells were washed three times with PBS containing 0.1% Triton X-100 solution (PBST) before incubation with anti-mouse monoclonal secondary antibody (1:300 in PBST; Jackson Immunoresearch) for 2 hours at room temperature. Finally, after three washes in PBST and a final wash in PBS, the coverslips were mounted on slides and stored at 4° C.
ImageJ software with the NeuronJ plugin was used to quantify neurite outgrowth on stained cells. For each experiment, 10 different randomly selected images were taken from each cover slip using a Nikon Eclipse E400 fluorescence microscope. Each image was converted into an 8-bit image (necessary for the NeuronJ plugin) and optimised with the brightness and contrast tool in GIMP (GNU Image Manipulation Program). For each image, individual traces were drawn for each clearly-identifiable neurite using the tracing tool in the NeuronJ plugin. Neurite length was measured in pixels and transformed into the corresponding length in μm depending on the magnification used. The average neurite length for each image was calculated by dividing total neurite length by the total number of neurites per image. Ten images per cover slip were measured and the mean calculated for the coverslip overall. Coverslips were in triplicate for each retinoid and concentration.

Data set [1] can be described thus: Turbidimetric aqueous solubility. It is filed as physicochemical. The settings on record: aqueous buffer, kinetic from dmso stock, 0.01 M phosphate buffered saline pH 7.4, 1% DMSO, 37° C. Here is the method: Test compound (10 mM in DMSO) is serially diluted to give solutions of 0.1, 0.3, 1 and 3 mM in DMSO. Each test compound concentration is then further diluted 1 in 100 in buffer (0.01 M phosphate buffered saline pH 7.4) so that the final DMSO concentration was 1% and the final test compound concentrations were 1, 3, 10, 30 and 100 μM. The experiment was performed at 37° C. and each concentration sample was incubated in 7 replicate wells. The plates were incubated for 2 hr at 37° C. before the absorbance was measured at 620 nm. The solubility of the sample was estimated from the concentration of test compound that produced an increase in absorbance above vehicle control (i.e., 1% DMSO in buffer).

Another data set has as its system MDR1. The experiment in a line: MDCK-MDR1 permeability assay. In kind it is in vitro ADME. The note with it: dog, pH 7.4, 60 min. The procedure: Thus, this assay is a valuable in vitro surrogate for blood-brain permeability and CNS exposure
MDCK-MDR1 cells obtained from the NIH (Rockville, MD, USA) are used between passage numbers 6-30. Cells are seeded onto Millipore Multiscreen Transwell plates at 3.4×10^5 cells/cm^2. The cells are cultured in DMEM and media is changed on day 3. On day 4 the permeability study is performed. Cell culture and assay incubations are carried out at 37° C. in an atmosphere of 5% CO2 with a relative humidity of 95%. On the day of the assay, the monolayers are prepared by rinsing both apical and basolateral surfaces twice with Hanks Balanced Salt Solution (HBSS) at the desired pH warmed to 37° C. […] Test compound permeability is assessed in duplicate. […] Test and control compounds are quantified by LC-MS/MS cassette analysis using a 7-point calibration with appropriate dilution of the samples. The starting concentration (C0) is determined from the dosing solution and the experimental recovery calculated from C0 and both apical and basolateral compartment concentrations.
The permeability coefficient (Papp) for each compound is calculated from the following equation: […]
Where dQ/dt is the rate of permeation of the drug across the cells, C0 is the donor compartment concentration at time zero and A is the area of the cell monolayer. […] An efflux ratio (ER) is calculated from mean A-B and B-A data.

The structures appear in SMILES notation. pEC50: −log10 of the molar value. In brackets after ≈: the same amount, converted by molar mass.

One may read the pEC50 as −log10 of the EC50, conventionally taken in molar units. The solubility is the concentration that dissolves in the medium under given conditions. Turning to `CC1(C)CCC(C)(C)c2cc(C#Cc3ccc(C(=O)O)nc3)ccc21` [DC528, 5-[2-(5,5,8,8-tetramethyl-5,6,7,8-tetrahydronaphthalen-2-yl)ethynyl]pyridine-2-carboxylic acid], in the data set on ERK1/2, the pEC50 is 7.85; the “Non-genomic activity (ERK½ Phosphorylation Assay) Efficacy (Emax)” value (“Non-genomic activity” for short) was determined as 69.15; the “Erk 1/2 phosphorylation potency/efficacy compared to retinoic acid” value was “higher potency and efficacy”. Also, in the data set with SH-SY5Y cells, the “Average neurite length compared to cells treated with ATRA” value is “significantly larger average neurite length” and the fold induction at 0.01 µM came out at 2.2. This compound also displayed a solubility at 2 h in data set [1] of 20 µM (≈ 6.67 µg/mL).
Regarding `CC1(C)CCC(C)(C)c2cc(C#Cc3ccc(C(=O)O)cc3F)ccc21` [DC526, 3-Fluoro-4-[2-(5,5,8,8-tetramethyl-5,6,7,8-tetrahydronaphthalen-2-yl)ethynyl]benzoic acid], in the data set with ERK1/2, the pEC50 was 7.58; the “Non-genomic activity” value came out at 50.22; the “Erk 1/2 phosphorylation potency/efficacy compared to retinoic acid” value was “higher potency and efficacy”. Moreover, in the data set with SH-SY5Y cells, the “Average neurite length compared to cells treated with ATRA” value is given as “significantly larger average neurite length” and the fold induction at 0.01 µM is 2.1. This compound also displayed a solubility at 2 h in data set [1] of 20 µM (≈ 7.01 µg/mL).
As a reminder, the Papp is a coefficient for how fast a substance crosses the barrier. `CC1(C)CCC(C)(C)c2nc(C#Cc3ccc(C(=O)O)cc3)cnc21` [DC645, 4-[2-(5,5,8,8-Tetramethyl-5,6,7,8-tetrahydroquinoxalin-2-yl)ethynyl]benzoic acid]: in the data set on ERK1/2, the pEC50 was 8.07; the “Non-genomic activity” value amounted to 91.57; the “Erk 1/2 phosphorylation potency/efficacy compared to retinoic acid” value was “higher potency and efficacy”. For the same compound, in the data set with SH-SY5Y cells, the “Average neurite length compared to cells treated with ATRA” value is on record as “significantly larger average neurite length” and the fold induction at 0.01 µM was 2.3. The Papp at 60 min, 10 μM with MDR1 turned out to be 34.9 ×10⁻⁶ cm/s. For the same compound, the efflux ratio at 60 min, 10 μM in the data set with MDR1 (from mean A-B and B-A data, read-out: ER (efflux ratio)) came to 0.6. The solubility at 2 h in data set [1] is > 100 µM.
